{"source": "paper PMC9500072", "about": "“Topical application of an irreversible small molecule inhibitor of lysyl oxidases ameliorates skin scarring and fibrosis” (Nature Communications, 2022)", "key": {"[1]": {"test_system": "primary human fibroblasts", "experiment": "Collagen crosslinking in vitro, scar-in-a-jar, LC-MS/MS", "format": "cell-based", "set-up": "PYD: unit not given beside the values; HLNL / DHLNL / DPD: unit not given here", "conditions": "11 days, biological replicates", "experimental": "To determine the effects of PXS-4787 on collagen cross-link formation, primary human fibroblasts from six different participants (six biological replicates) were cultured for 11 days using ‘scar-in-a-jar’ conditions in the presence of 0, 1, and 10 µM of inhibitor. Liquid chromatography with tandem mass spectrometry (LC-MS/MS) was used to measure hydroxyproline and cross-link concentrations in these samples. Hydroxyproline concentration provides a close estimate of collagen concentration as it is present in high concentrations in collagens and is critical to fibril formation.\nPrimary scar fibroblasts were seeded in a complete media at density 75 × 10^4 cells per well in a T-25 tissue culture flask at 37 °C and 5% CO2. After 16 h the complete media was replaced by the stimulated media ([…] Ficoll 70 and (25 mg/ mL) Ficoll 400, 5 ng/mL TGF-β1, 0.5% FBS, […] L-ascorbic acid-2-phosphate) in DMEM-Glutamax™ supplemented with 0.5% FBS and 1% Penicillin/ Streptomycin and 1 and 10 µM concentrations of PXS-4787 for 11 days to allow time for sufficient crosslinking of extracellular collagen. After 11 days, the media was aspirated and cells were trypsinized for 30 min and reduced with 12 mg/mL Sodium Borohydride in 20 mM Sodium Hydroxide solution followed and incubated for 30 min at room temperature. The pH of the solution was made acidic using 50 µL of neat acetic acid. The solution was centrifuged at 20,000g for 15 min at 4 °C followed by three washes with MilliQ water and samples processed for crosslinking analysis.\nCell pellets or isolated tissue samples were completely hydrolyzed in 1.5 mL 6 M hydrochloric acid for 24 h at 105 °C. After complete hydrolysis, samples were dried using a vacuum dryer and reconstituted using 200 µL MilliQ water. The sample clean-up was performed using solid-phase extraction method which uses C18 and SCX solid-phase extraction cartridges for sample purification. The samples were run on UPLC-MS-MS (Mass Spectrometer: Thermo Scientific TSQ Endura Triple quadrupole, UPLC: Thermo Scientific Dionex UltiMate 3000) using Agilent RRHD SB-C18,2.1x50mm,1.8um analytical column and solvent A: 10 mM ammonium formate, 0.1% formic acid, 0.1% HFBA in H2O and solvent B: 10 mM ammonium formate, 0.1% formic acid, 0.1% HFBA in MeOH and analyzed as previously described. Limits of detection are listed in Supplementary Table S4."}, "[2]": {"biological_target": "Adenosine A3 (Homo sapiens, UniProt P0DMS8)", "sequence (P0DMS8 whole entry)": "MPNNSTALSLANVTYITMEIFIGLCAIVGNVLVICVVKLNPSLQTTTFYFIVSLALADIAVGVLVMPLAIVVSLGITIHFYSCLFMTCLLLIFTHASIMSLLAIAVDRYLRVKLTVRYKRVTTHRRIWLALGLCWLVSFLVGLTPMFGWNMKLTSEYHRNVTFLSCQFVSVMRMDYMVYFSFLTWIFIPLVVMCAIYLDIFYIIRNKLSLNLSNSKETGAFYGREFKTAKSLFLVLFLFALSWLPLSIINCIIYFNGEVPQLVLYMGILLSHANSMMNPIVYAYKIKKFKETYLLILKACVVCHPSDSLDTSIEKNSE", "experiment": "Eurofins panel 200720", "format": "binding"}, "[3]": {"biological_target": "Adrenergic α1D (Homo sapiens, UniProt P25100)", "sequence (P25100 whole entry)": "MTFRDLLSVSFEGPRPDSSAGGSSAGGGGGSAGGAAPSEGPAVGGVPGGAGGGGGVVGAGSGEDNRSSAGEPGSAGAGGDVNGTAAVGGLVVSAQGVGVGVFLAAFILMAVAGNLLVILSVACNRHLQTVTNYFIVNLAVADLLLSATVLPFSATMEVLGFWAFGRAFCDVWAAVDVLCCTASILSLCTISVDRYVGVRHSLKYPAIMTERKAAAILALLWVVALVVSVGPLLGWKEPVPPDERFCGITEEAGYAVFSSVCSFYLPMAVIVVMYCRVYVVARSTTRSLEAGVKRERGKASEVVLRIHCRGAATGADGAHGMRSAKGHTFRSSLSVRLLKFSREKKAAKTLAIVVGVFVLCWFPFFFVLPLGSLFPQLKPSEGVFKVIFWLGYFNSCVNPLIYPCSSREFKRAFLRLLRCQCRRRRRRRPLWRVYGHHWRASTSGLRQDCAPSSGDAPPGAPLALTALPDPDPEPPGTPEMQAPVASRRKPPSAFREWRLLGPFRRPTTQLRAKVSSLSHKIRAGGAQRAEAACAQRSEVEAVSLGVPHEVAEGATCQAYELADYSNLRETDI", "experiment": "Eurofins panel 203400", "format": "binding"}, "[4]": {"biological_target": "Dopamine D3 (Homo sapiens, UniProt P35462)", "sequence (P35462 whole entry)": "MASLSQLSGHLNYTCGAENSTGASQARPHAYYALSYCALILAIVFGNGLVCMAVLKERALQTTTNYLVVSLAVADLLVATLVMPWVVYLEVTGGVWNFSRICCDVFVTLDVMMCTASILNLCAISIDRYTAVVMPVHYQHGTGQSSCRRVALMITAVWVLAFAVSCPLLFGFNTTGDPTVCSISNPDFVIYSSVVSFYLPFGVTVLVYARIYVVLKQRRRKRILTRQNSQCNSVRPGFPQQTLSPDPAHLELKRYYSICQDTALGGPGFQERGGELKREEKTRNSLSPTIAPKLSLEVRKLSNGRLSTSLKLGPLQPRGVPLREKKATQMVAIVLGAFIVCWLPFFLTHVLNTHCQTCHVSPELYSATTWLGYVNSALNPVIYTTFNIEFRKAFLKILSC", "experiment": "Eurofins panel 219800", "format": "binding"}, "[5]": {"biological_target": "GABAB1A (Homo sapiens, UniProt Q9UBS5)", "sequence (Q9UBS5 15-961 limits assumed)": "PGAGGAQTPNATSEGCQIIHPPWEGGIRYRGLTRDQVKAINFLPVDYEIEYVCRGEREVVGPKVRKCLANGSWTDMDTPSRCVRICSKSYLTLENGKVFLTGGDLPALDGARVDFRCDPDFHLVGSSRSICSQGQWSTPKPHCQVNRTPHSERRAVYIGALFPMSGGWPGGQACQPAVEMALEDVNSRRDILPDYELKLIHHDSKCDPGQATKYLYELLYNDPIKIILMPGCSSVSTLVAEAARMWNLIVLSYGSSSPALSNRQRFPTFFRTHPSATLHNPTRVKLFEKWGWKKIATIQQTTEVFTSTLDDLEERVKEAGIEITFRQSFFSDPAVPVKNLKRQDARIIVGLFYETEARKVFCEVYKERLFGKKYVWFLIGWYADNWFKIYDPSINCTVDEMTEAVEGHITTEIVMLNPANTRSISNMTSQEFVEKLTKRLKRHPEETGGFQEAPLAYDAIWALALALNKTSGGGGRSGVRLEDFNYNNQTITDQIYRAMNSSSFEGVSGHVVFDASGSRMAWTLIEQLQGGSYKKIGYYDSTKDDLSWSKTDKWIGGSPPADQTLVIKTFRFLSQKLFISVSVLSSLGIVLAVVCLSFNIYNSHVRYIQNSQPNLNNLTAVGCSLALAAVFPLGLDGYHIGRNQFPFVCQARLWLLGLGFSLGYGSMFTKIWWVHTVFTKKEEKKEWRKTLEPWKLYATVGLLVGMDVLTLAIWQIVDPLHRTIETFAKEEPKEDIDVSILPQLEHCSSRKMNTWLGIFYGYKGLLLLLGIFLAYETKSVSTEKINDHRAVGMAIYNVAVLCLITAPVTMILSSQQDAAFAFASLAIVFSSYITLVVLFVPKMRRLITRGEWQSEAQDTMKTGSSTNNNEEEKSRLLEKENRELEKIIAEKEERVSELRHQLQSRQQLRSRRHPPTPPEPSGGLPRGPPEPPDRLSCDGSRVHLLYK", "experiment": "Eurofins panel 228610", "format": "binding"}, "[6]": {"test_system": "Glutamate, Kainate", "experiment": "Eurofins panel 232700", "format": "binding, rat", "conditions": "10 µM"}, "[7]": {"experiment": "Franz Cell skin permeability assay", "format": "in vitro ADME, human", "conditions": "3% cream on epidermis of human skin ex vivo"}, "[8]": {"test_system": "lysyl oxidase activity in the skin", "experiment": "Rat pharmacokinetic-pharmacodynamic model, skin lysyl oxidase activity", "format": "in vivo", "conditions": "for skin LOX activity S/N: individual animals; for inhibition of the specific lysyl oxidase signal: after 24 h", "experimental": "PXS-6302 was formulated as an oil in water cream of different concentrations (0, 0.3, 1, 10%) and applied to a shaved area on the back of a rat (500 mg cream applied to 16 cm^2). After 24 h animals were sacrificed, the concentration of PXS-6302 in the skin was measured and the lysyl oxidase activity determined.\nFig. 5 Pharmacokinetic-pharmacodynamic measurement of target engagement in rat skin in vivo. […] Activity was measured 24 h after last topical application. Noise in these assays was determined by measuring background fluorescent changes in the presence of a high (>300 μM) concentration of BAPN to block all lysyl oxidase activity in the presence of other amine oxidase inhibitors (n = 3 per group). The signal (activity in the absence of BAPN) over noise (signal of the same extract in the presence of BAPN). Statistical analysis was performed with one-way ANOVA with Tukey’s method for multiple comparisons. *p < 0.05, **p < 0.01, ***p < 0.001 and ****p < 0.0001. Source data are provided as a Source Data file. […]\nPXS-6302 was formulated as an oil in water cream of different concentrations (0, 0.3, 1, 10%) and applied to a shaved area on the back of an adult rat (500 mg cream applied to 16 cm^2 skin surface area). After 24 h animals were euthanased. For the detection of lysyl oxidase activity in the skin, epidermal and dermal layers of the skin were dissected, pre-cooled with liquid nitrogen and pulverized. Samples were washed by homogenization with ice-cold wash buffer (0.15 M NaCl, 50 mM sodium borate, pH 8.0 with 0.25 mM PMSF and 1 µL/mL bovine aprotinin as protease inhibitors) at 100 µL/mg, centrifuged at 10,000 × g for 10 min at 4 °C and supernatant discarded. After the final washing step, the pellet was resuspended in extraction buffer (6 M urea, 50 mM sodium borate, pH 8.2 with 0.25 mM PMSF and 1 µL/mL aprotinin as protease inhibitors) with ratio of buffer volume to tissue weight at 4:1. After a 3 h incubation at 4 °C, the mixture was diluted 1:2 with assay buffer containing 50 mM sodium borate (pH 8.2), centrifuged at 20,000 × g for 20 min at 4 °C. The collected supernatant was spiked with pargyline hydrochloride and mofegiline hydrochloride at final concentrations of 0.5 mM and 1 µM, respectively, to inhibit amine oxidases. Lysyl oxidase activity was measured as previously described. The concentration of PXS-6302 in the skin was also measured in the same samples using LCMSMS as described for Franz cell diffusion assay."}, "[9]": {"biological_target": "Cholecystokinin CCK1 (CCKA) (Homo sapiens, UniProt P32238)", "sequence (P32238 whole entry)": "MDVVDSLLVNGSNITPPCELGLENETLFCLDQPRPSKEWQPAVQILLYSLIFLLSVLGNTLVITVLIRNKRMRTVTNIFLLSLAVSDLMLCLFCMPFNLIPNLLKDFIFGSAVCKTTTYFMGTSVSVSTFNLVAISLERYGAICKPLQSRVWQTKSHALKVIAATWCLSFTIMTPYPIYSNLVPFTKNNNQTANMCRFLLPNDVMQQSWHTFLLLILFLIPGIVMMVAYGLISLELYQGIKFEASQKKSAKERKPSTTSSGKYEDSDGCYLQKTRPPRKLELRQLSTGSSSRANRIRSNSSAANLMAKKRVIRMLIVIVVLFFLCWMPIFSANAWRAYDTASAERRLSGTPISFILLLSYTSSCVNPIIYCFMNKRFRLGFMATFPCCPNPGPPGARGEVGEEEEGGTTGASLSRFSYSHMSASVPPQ", "experiment": "Eurofins panel 218030", "format": "binding"}, "[10]": {"biological_target": "hERG potassium channel (Homo sapiens, UniProt Q12809)", "sequence (Q12809 whole entry)": "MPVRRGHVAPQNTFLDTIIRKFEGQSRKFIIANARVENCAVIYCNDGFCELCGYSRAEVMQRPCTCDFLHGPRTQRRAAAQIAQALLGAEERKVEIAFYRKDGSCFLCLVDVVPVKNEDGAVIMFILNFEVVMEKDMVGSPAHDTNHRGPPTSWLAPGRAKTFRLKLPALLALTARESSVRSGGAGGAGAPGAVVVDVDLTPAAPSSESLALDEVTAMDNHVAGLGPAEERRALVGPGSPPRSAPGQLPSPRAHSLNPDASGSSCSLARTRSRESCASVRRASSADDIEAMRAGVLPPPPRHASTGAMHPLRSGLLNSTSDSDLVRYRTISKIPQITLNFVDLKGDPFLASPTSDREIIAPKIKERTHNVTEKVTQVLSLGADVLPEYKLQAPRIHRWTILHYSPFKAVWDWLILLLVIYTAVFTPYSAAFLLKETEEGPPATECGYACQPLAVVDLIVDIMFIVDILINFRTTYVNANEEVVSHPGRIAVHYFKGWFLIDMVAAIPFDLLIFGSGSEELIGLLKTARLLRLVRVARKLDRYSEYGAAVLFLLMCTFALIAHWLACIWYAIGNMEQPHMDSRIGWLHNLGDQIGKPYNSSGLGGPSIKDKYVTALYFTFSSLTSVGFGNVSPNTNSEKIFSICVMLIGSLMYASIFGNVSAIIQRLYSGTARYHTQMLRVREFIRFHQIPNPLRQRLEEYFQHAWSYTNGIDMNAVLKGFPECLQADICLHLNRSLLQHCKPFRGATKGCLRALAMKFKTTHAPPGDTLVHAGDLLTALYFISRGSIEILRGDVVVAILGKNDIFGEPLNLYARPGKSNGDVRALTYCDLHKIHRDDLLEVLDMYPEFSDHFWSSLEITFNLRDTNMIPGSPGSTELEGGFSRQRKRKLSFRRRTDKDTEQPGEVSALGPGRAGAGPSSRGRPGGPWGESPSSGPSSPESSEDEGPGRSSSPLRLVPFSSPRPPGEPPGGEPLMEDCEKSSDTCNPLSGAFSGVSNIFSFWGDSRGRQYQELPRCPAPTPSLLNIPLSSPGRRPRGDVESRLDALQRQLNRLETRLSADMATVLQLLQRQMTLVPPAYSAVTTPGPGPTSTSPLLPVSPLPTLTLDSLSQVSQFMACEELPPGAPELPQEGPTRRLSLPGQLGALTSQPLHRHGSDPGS", "experiment": "Eurofins panel 265910", "format": "binding", "conditions": "probe [3H]Dofetilide"}, "[11]": {"biological_target": "Vasopressin V1A (Homo sapiens, UniProt P37288)", "sequence (P37288 whole entry)": "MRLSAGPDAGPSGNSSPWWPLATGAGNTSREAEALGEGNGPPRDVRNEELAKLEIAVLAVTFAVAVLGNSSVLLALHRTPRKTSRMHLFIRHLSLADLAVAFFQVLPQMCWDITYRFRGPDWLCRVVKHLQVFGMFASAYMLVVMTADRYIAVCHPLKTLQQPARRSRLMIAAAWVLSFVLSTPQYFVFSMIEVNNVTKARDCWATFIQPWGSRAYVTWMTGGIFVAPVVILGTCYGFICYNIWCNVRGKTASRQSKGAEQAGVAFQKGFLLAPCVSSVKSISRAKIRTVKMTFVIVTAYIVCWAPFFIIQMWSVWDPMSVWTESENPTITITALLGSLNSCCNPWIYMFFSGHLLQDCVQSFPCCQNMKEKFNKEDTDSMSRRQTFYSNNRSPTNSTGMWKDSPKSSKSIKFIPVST", "experiment": "Eurofins panel 287530", "format": "binding"}}, "note": "Values joined by “and” are separate entries in the source; they are usually repeats but may differ in a detail not shown here. Equal entries are not always repeated."}
{"smiles": "NC/C=C(\\F)CS(=O)(=O)c1ccccc1", "note": "[PXS-4787]", "values": [{"measurement": "DHLNL", "setting": "[1]; 1 µM", "value": "143.775 and 329.16 and 113.02 and 83.13 and 359.48 and 365.16 and 104.82"}, {"measurement": "DPD", "setting": "[1]; 1 µM", "value": "2.93 and 49.66 and 7.64 and 1.83 and 44.6 and 15.94 and 5.96"}, {"measurement": "HLNL", "setting": "[1]; 1 µM", "value": "2792.14 and 4779.62 and 1377.5 and 1440.95 and 5514.92 and 6254.02 and 873.64"}, {"measurement": "HYP (hydroxyproline)", "setting": "[1]; 1 µM", "value": "did not reduce and 100208 and 1106205 and 113032 and 54746.7 and 1239040 and 1208884 and 155115"}, {"measurement": "PYD", "setting": "[1]; 1 µM", "value": "26.445 and 138.7 and 33.16 and 18.555 and 194.48 and 107.58 and 32.22"}, {"measurement": "DHLNL", "setting": "[1]; 10 µM", "value": "74.25 and 254.16 and 91.76 and 55.65 and 288.12 and 246.36 and 90.12"}, {"measurement": "DPD", "setting": "[1]; 10 µM", "value": "0 and 24.22 and 4.54 and 21.2 and 6.56 and 3.9"}, {"measurement": "HLNL", "setting": "[1]; 10 µM", "value": "trend reduction and 1564.75 and 3443.58 and 1107.32 and 1868.37 and 4501.9 and 4758.54 and 846.68"}, {"measurement": "HYP (hydroxyproline)", "setting": "[1]; 10 µM", "value": "significantly (p = 0.0385) diminished and 52523.3 and 888147 and 121381 and 44633 and 1404421 and 949167 and 129547"}, {"measurement": "PYD", "setting": "[1]; 10 µM", "value": "5.86 and 65.12 and 17 and 7.95 and 92.68 and 46.62 and 20.6"}, {"measurement": "inhibition at 10 µM", "setting": "[2]", "value": 4, "unit": "%"}, {"measurement": "inhibition at 10 µM", "setting": "[3]", "value": -1, "unit": "%"}, {"measurement": "inhibition at 10 µM", "setting": "[4]", "value": 0, "unit": "%"}, {"measurement": "inhibition at 10 µM", "setting": "[5]", "value": 6, "unit": "%"}, {"measurement": "% Inh.", "setting": "[6]", "value": 16, "unit": "%"}]}
{"smiles": "NC/C=C(\\F)C(F)(F)S(=O)(=O)c1ccccc1", "note": "[PXS-6302]", "values": [{"measurement": "further increase of concentration in reservoir chamber over the next 14 h", "setting": "[7]", "value": 10, "unit": "fold"}, {"measurement": "increase of concentration in reservoir chamber between 2 and 6 h", "setting": "[7]", "value": 10, "unit": "fold"}, {"measurement": "lysyl oxidase activity after repeat dosing", "setting": "[8]; 0.5, 1, 3% cream once daily 5 days", "value": "strongly reduced"}, {"measurement": "lysyl oxidase activity, % of pre-drug activity", "setting": "[8]; 1% cream, 48 h after the last dose", "value": 26, "unit": "%"}, {"measurement": "skin LOX activity S/N", "setting": "[8]; repeat application 0.5% 400mg", "value": "1.603 and 1.3949 and 1.286 and 1.15"}, {"measurement": "skin LOX activity S/N", "setting": "[8]; repeat application 1% 400mg", "value": "1.251 and 1.262 (2×) and 1.26"}, {"measurement": "skin LOX activity S/N", "setting": "[8]; repeat application 3% 400mg", "value": "1.108 and 1.192 and 1.079 and 1.121"}, {"measurement": "skin LOX activity S/N", "setting": "[8]; single application 0.3% 500mg", "value": "1.245 and 1.84 and 2.264"}, {"measurement": "skin LOX activity S/N", "setting": "[8]; single application 1% 500mg", "value": "1.893 and 1.116 and 1.337"}, {"measurement": "skin LOX activity S/N", "setting": "[8]; single application 10% 500mg", "value": "1.274 and 1.089 and 1.033"}, {"measurement": "inhibition of the specific lysyl oxidase signal", "setting": "[8]; single dose 1% cream", "value": 67, "unit": "%"}, {"measurement": "inhibition of the specific lysyl oxidase signal", "setting": "[8]; single dose 10% cream", "value": 98, "unit": "%"}, {"measurement": "inhibition at 30 µM", "setting": "[9]", "value": 1, "unit": "%"}, {"measurement": "inhibition at 30 µM", "setting": "[10]", "value": 29, "unit": "%"}, {"measurement": "inhibition at 30 µM", "setting": "[11]", "value": 3, "unit": "%"}]}
